From patent publication US11413243B2, “Fusogenic compounds for delivery of biologically active molecules” (Nitto Denko Corporation, priority 2017, dated 2022) come the findings set out here.

This experiment deals with HSP47. The note with it: for HSP47 gene expression knockdown compared to control formulation without fusogenic compound: HEDC and S104 liposomes, all concentrations of siRNA; for % of Expression at Dose (nM) 18 nM: siRNA 18 nM; for % of Expression at Dose (nM) 75 nM: siRNA 75 nM; for % of Expression at Dose (nM) 300 nM: siRNA 300 nM.

Structures are written as SMILES. Like-named read-outs stand apart in the source and are kept apart here.

Protocol: The in vitro activity for gene expression knockdown using an siRNA was measured using rat stellate cells in DMEM medium according to the following protocol: One day before the transfection, plate the cells in a 96-well plate at 3×10^3 cells per well for Stellate cells with 100 μl of medium containing 10% FBS and culture in a 37° C. incubator containing a humidified atmosphere of 5% CO2 in air. Before transfection, change medium to 90 μl of medium without antibiotics. Prepare the appropriate dilutions of the solution collected from the tubing in PBS buffer so that the addition of 10 μl into each well is sufficient to reach the desired concentration. 48 hours after transfection, wash the cells once with ice-cold PBS. Lyse the cells with 50 μl of Cell-to-Ct Lysis Buffer for 5-30 minutes at ambient temperature. Add 5 μl of Stop Solution and incubate for 2 minutes at ambient temperature. Measure mRNA level by qPCR with TAQMAN immediately. Alternatively, the samples can be frozen at −80° C. and assayed at later times. For qRT-PCR assay: Thaw all reagents on ice. Mix the pooled reagents in 0.2 ml PCR tubes. Dispense the set-up mixture into 384 well plate, 10 μl/well×3. Seal the plate with film, spin down mixture into the bottom of wells. Perform qRT-PCR assay.
In this example, an HSP47 siRNA was used to knockdown HSP47 gene. For TaqMan gene expression assays, HSP47 gene specific TaqMan probe was used.

In the case of `CCCCC/C=C\C/C=C\CCCCCCCC(=O)OCCN(CCOC(=O)CCCCCCC/C=C\C/C=C\CCCCC)C(=O)CCC(=O)NCCCC[C@H](NC(=O)CCC(=O)N(CCOC(=O)CCCCCCC/C=C\C/C=C\CCCCC)CCOC(=O)CCCCCCC/C=C\C/C=C\CCCCC)C(=O)NCCCOCCOCCOCCCNC(=O)CCOCCOCCOCCOCCOCCC(=O)NCCCOCCOCCOCCCNC(=O)[C@H](CCCCNC(=O)CCC(=O)N(CCOC(=O)CCCCCCC/C=C\C/C=C\CCCCC)CCOC(=O)CCCCCCC/C=C\C/C=C\CCCCC)NC(=O)CCC(=O)N(CCOC(=O)CCCCCCC/C=C\C/C=C\CCCCC)CCOC(=O)CCCCCCC/C=C\C/C=C\CCCCC` [Compound R4], the “activity for gene expression knockdown in stellate cells compared to control formulation” value (FIG. 24, Table 6 formulation HEDC:S104:DOPE:CH:DMPE-PEG with 2% (of total lipids) fusogenic compound) was “surprisingly increased”. The “HSP47 gene expression knockdown compared to control formulation without fusogenic compound” value (FIG. 46, fusogenic compound 2% of the total lipids) was “greatly and surprisingly increased”. In addition, where the note is “FIG. 46, fusogenic compound 10% of the total lipids”, the “HSP47 gene expression knockdown compared to control formulation without fusogenic compound” value was “greatly and surprisingly increased”. Moreover, the “HSP47 gene expression knockdown compared to control formulation without fusogenic compound” value (FIG. 47, fusogenic compound 2% of the total lipids) was “greatly and surprisingly increased”. Besides, where the note is “Table 3, rat stellate cells”, the “% of Expression at Dose (nM) 18 nM” value came out at 16%, the “% of Expression at Dose (nM) 75 nM” value is recorded as 10% and the “% of Expression at Dose (nM) 300 nM” value turned out to be 6%. For the setting “Table 3, siRNA 50 nM, rat stellate cells, 48 hours after transfection”, the “% of Expression at Dose (nM) 50 nM” value is reported as 44%. Moreover, the “% of Expression at Dose (nM) 200 nM” value (Table 3, siRNA 200 nM, rat stellate cells, 48 hours after transfection) is listed as 15%.

`CCCCCCCCCCCCCCCC(=O)OCCN(CCOC(=O)CCCCCCCCCCCCCCC)C(=O)CCCC(=O)NCCCC[C@H](NC(=O)CCCC(=O)N(CCOC(=O)CCCCCCCCCCCCCCC)CCOC(=O)CCCCCCCCCCCCCCC)C(=O)NCCCOCCOCCOCCCNC(=O)CCOCCOCCOCCOCCOCCC(=O)NCCCOCCOCCOCCCNC(=O)[C@H](CCCCNC(=O)CCCC(=O)N(CCOC(=O)CCCCCCCCCCCCCCC)CCOC(=O)CCCCCCCCCCCCCCC)NC(=O)CCCC(=O)N(CCOC(=O)CCCCCCCCCCCCCCC)CCOC(=O)CCCCCCCCCCCCCCC` [Compound S6]: under “Table 3, rat stellate cells”, the “% of Expression at Dose (nM) 18 nM” value came to 97%, the “% of Expression at Dose (nM) 75 nM” value amounted to 80% and the “% of Expression at Dose (nM) 300 nM” value is 33%.

As for `CCCCCCCC/C=C\CCCCCCCC(=O)OCCN(CCOC(=O)CCCCCCC/C=C\CCCCCCCC)C(=O)CCC(=O)NCCCC[C@H](NC(=O)CCC(=O)N(CCOC(=O)CCCCCCC/C=C\CCCCCCCC)CCOC(=O)CCCCCCC/C=C\CCCCCCCC)C(=O)NCCCOCCOCCOCCOCCOCCCNC(=O)[C@H](CCCCNC(=O)CCC(=O)N(CCOC(=O)CCCCCCC/C=C\CCCCCCCC)CCOC(=O)CCCCCCC/C=C\CCCCCCCC)NC(=O)CCC(=O)N(CCOC(=O)CCCCCCC/C=C\CCCCCCCC)CCOC(=O)CCCCCCC/C=C\CCCCCCCC` [Compound S7], where the note is “Table 3, rat stellate cells”, the “% of Expression at Dose (nM) 18 nM” value is 57%, the “% of Expression at Dose (nM) 75 nM” value worked out at 48% and the “% of Expression at Dose (nM) 300 nM” value is 27%.

As to `CCCCCCCC/C=C\CCCCCCCC(=O)OCCN(CCOC(=O)CCCCCCC/C=C\CCCCCCCC)C(=O)CCC(=O)NCCCC[C@H](NC(=O)CCC(=O)N(CCOC(=O)CCCCCCC/C=C\CCCCCCCC)CCOC(=O)CCCCCCC/C=C\CCCCCCCC)C(=O)NCCCOCCOCCOCCCNC(=O)CCOCCOCCOCCOCCOCCC(=O)NCCCOCCOCCOCCCNC(=O)[C@H](CCCCNC(=O)CCC(=O)N(CCOC(=O)CCCCCCC/C=C\CCCCCCCC)CCOC(=O)CCCCCCC/C=C\CCCCCCCC)NC(=O)CCC(=O)N(CCOC(=O)CCCCCCC/C=C\CCCCCCCC)CCOC(=O)CCCCCCC/C=C\CCCCCCCC` [Compound S8], for the setting “Table 3, rat stellate cells”, the “% of Expression at Dose (nM) 18 nM” value was 74%, the “% of Expression at Dose (nM) 75 nM” value turned out to be 64% and the “% of Expression at Dose (nM) 300 nM” value came to 42%.

Take `CCCCCCCCCCCCCC(=O)OCCN(CCOC(=O)CCCCCCCCCCCCC)C(=O)CCC(=O)NCCCC[C@H](NC(=O)CCC(=O)N(CCOC(=O)CCCCCCCCCCCCC)CCOC(=O)CCCCCCCCCCCCC)C(=O)NCCCOCCOCCOCCCNC(=O)CCOCCOCCOCCOCCOCCC(=O)NCCCOCCOCCOCCCNC(=O)[C@H](CCCCNC(=O)CCC(=O)N(CCOC(=O)CCCCCCCCCCCCC)CCOC(=O)CCCCCCCCCCCCC)NC(=O)CCC(=O)N(CCOC(=O)CCCCCCCCCCCCC)CCOC(=O)CCCCCCCCCCCCC` [Compound T1]: under “Table 3, rat stellate cells”, the “% of Expression at Dose (nM) 18 nM” value was 76%, the “% of Expression at Dose (nM) 75 nM” value stood at 68% and the “% of Expression at Dose (nM) 300 nM” value worked out at 44%.

`CCCCCCCCCCCCCC(=O)OCCN(CCOC(=O)CCCCCCCCCCCCC)C(=O)CCC(=O)NCCCC[C@H](NC(=O)CCC(=O)N(CCOC(=O)CCCCCCCCCCCCC)CCOC(=O)CCCCCCCCCCCCC)C(=O)NCCCOCCOCCOCCOCCOCCCNC(=O)[C@H](CCCCNC(=O)CCC(=O)N(CCOC(=O)CCCCCCCCCCCCC)CCOC(=O)CCCCCCCCCCCCC)NC(=O)CCC(=O)N(CCOC(=O)CCCCCCCCCCCCC)CCOC(=O)CCCCCCCCCCCCC` [Compound T2]: for the setting “Table 3, rat stellate cells”, the “% of Expression at Dose (nM) 18 nM” value worked out at 82%, the “% of Expression at Dose (nM) 75 nM” value is reported as 70% and the “% of Expression at Dose (nM) 300 nM” value worked out at 44%.

On to `CCCCC/C=C\C/C=C\CCCCCCCC(=O)OCCN(CCOC(=O)CCCCCCC/C=C\C/C=C\CCCCC)C(=O)CCC(=O)NCCCCC(NC(=O)CCC(=O)N(CCOC(=O)CCCCCCC/C=C\C/C=C\CCCCC)CCOC(=O)CCCCCCC/C=C\C/C=C\CCCCC)C(=O)NCCCOCCOCCOCCCNC(=O)C(CCCCNC(=O)CCC(=O)N(CCOC(=O)CCCCCCC/C=C\C/C=C\CCCCC)CCOC(=O)CCCCCCC/C=C\C/C=C\CCCCC)NC(=O)CCC(=O)N(CCOC(=O)CCCCCCC/C=C\C/C=C\CCCCC)CCOC(=O)CCCCCCC/C=C\C/C=C\CCCCC` (stereo not drawn) [Compound T4], for which, where the note is “Table 3, rat stellate cells”, the “% of Expression at Dose (nM) 18 nM” value is 82%, the “% of Expression at Dose (nM) 75 nM” value was found to be 70% and the “% of Expression at Dose (nM) 300 nM” value is 44%. Further, for the setting “Table 4, rat stellate cells”, the “% of Expression at Dose (nM) 18 nM” value is recorded as 27%, the “% of Expression at Dose (nM) 75 nM” value came out at 10% and the “% of Expression at Dose (nM) 300 nM” value was 8%.

For `CCCCC/C=C\C/C=C\CCCCCCCC(=O)OCCN(CCOC(=O)CCCCCCC/C=C\C/C=C\CCCCC)C(=O)CCCC(=O)NCCCC[C@H](NC(=O)CCCC(=O)N(CCOC(=O)CCCCCCC/C=C\C/C=C\CCCCC)CCOC(=O)CCCCCCC/C=C\C/C=C\CCCCC)C(=O)NCCCOCCOCCOCCOCCOCCCNC(=O)[C@H](CCCCNC(=O)CCCC(=O)N(CCOC(=O)CCCCCCC/C=C\C/C=C\CCCCC)CCOC(=O)CCCCCCC/C=C\C/C=C\CCCCC)NC(=O)CCCC(=O)N(CCOC(=O)CCCCCCC/C=C\C/C=C\CCCCC)CCOC(=O)CCCCCCC/C=C\C/C=C\CCCCC` [Compound T5], under “Table 4, rat stellate cells”, the “% of Expression at Dose (nM) 18 nM” value was found to be 29%, the “% of Expression at Dose (nM) 75 nM” value is on record as 13% and the “% of Expression at Dose (nM) 300 nM” value amounted to 11%.

For `CCCCC/C=C\C/C=C\CCCCCCCC(=O)OCCN(CCOC(=O)CCCCCCC/C=C\C/C=C\CCCCC)C(=O)CCC(=O)NCCC[C@H](NC(=O)CCC(=O)N(CCOC(=O)CCCCCCC/C=C\C/C=C\CCCCC)CCOC(=O)CCCCCCC/C=C\C/C=C\CCCCC)C(=O)NCCCOCCOCCOCCOCCOCCCNC(=O)[C@H](CCCNC(=O)CCC(=O)N(CCOC(=O)CCCCCCC/C=C\C/C=C\CCCCC)CCOC(=O)CCCCCCC/C=C\C/C=C\CCCCC)NC(=O)CCC(=O)N(CCOC(=O)CCCCCCC/C=C\C/C=C\CCCCC)CCOC(=O)CCCCCCC/C=C\C/C=C\CCCCC` [Compound T6], where the note is “Table 4, rat stellate cells”, the “% of Expression at Dose (nM) 18 nM” value is given as 30%, the “% of Expression at Dose (nM) 75 nM” value came to 12% and the “% of Expression at Dose (nM) 300 nM” value is listed as 5%.

For `CCCCC/C=C\C/C=C\CCCCCCCC(=O)OCCN(CCOC(=O)CCCCCCC/C=C\C/C=C\CCCCC)C(=O)CCC(=O)NC[C@H](NC(=O)CCC(=O)N(CCOC(=O)CCCCCCC/C=C\C/C=C\CCCCC)CCOC(=O)CCCCCCC/C=C\C/C=C\CCCCC)C(=O)NCCCOCCOCCOCCOCCOCCCNC(=O)[C@H](CNC(=O)CCC(=O)N(CCOC(=O)CCCCCCC/C=C\C/C=C\CCCCC)CCOC(=O)CCCCCCC/C=C\C/C=C\CCCCC)NC(=O)CCC(=O)N(CCOC(=O)CCCCCCC/C=C\C/C=C\CCCCC)CCOC(=O)CCCCCCC/C=C\C/C=C\CCCCC` [Compound T7], under “Table 4, rat stellate cells”, the “% of Expression at Dose (nM) 18 nM” value worked out at 51%, the “% of Expression at Dose (nM) 75 nM” value is 20% and the “% of Expression at Dose (nM) 300 nM” value is 8%.

For the molecule `CC/C=C\C/C=C\C/C=C\CCCCCCCC(=O)OCCN(CCOC(=O)CCCCCCC/C=C\C/C=C\C/C=C\CC)C(=O)CCC(=O)NCCCC[C@H](NC(=O)CCC(=O)N(CCOC(=O)CCCCCCC/C=C\C/C=C\C/C=C\CC)CCOC(=O)CCCCCCC/C=C\C/C=C\C/C=C\CC)C(=O)NCCCOCCOCCOCCOCCOCCCNC(=O)[C@H](CCCCNC(=O)CCC(=O)N(CCOC(=O)CCCCCCC/C=C\C/C=C\C/C=C\CC)CCOC(=O)CCCCCCC/C=C\C/C=C\C/C=C\CC)NC(=O)CCC(=O)N(CCOC(=O)CCCCCCC/C=C\C/C=C\C/C=C\CC)CCOC(=O)CCCCCCC/C=C\C/C=C\C/C=C\CC` [Compound T8], for the setting “Table 4, rat stellate cells”, the “% of Expression at Dose (nM) 18 nM” value amounted to 29%, the “% of Expression at Dose (nM) 75 nM” value amounted to 9% and the “% of Expression at Dose (nM) 300 nM” value is given as 8%.

As for `CCC/C=C\C/C=C\CCCCCCCC(=O)OCCN(CCOC(=O)CCCCCCC/C=C\C/C=C\CCCCC)C(=O)CC[C@H](NC(=O)CCC(=O)NCCCOCCOCCOCCOCCOCCCNC(=O)CCC(=O)NC(CCC(=O)N(CCOC(=O)CCCCCCC/C=C\C/C=C\CCCCC)CCOC(=O)CCCCCCC/C=C\C/C=C\CCCCC)C(=O)N(CCOC(=O)CCCCCCC/C=C\C/C=C\CCC)CCOC(=O)CCCCCCC/C=C\C/C=C\CCCCC)C(=O)N(CCOC(=O)CCCCCCC/C=C\C/C=C\CCCCC)CCOC(=O)CCCCCCC/C=C\C/C=C\CCCCC` (stereo partly drawn) [Compound T9], where the note is “Table 4, rat stellate cells”, the “% of Expression at Dose (nM) 18 nM” value is listed as 100%, the “% of Expression at Dose (nM) 75 nM” value turned out to be 65% and the “% of Expression at Dose (nM) 300 nM” value came out at 36%.
